“Also recorded” adds a separate entry of the source. Read-outs that look alike come from different tables or passages of the source.
Tests used:
[1] = system: immune cell subsets in 4T1 tumors; test: Mass cytometry (CyTOF) of immune cell subsets in 4T1 tumors; type: in vivo, BALB/c mice
Method: Single cell suspensions were prepared from 4T1 tumors grown in BALC/c mice treated for 12 days with control (CON), 100 μg of anti-PD-L1 antibody Q3 days (PD-L1), 50 mg/kg SERD128 via oral gavage (SERD128) or combined (PD-L1+SERD128). Cells were labeled with specific antibodies and analyzed by mass cytometry (cyTOF).
Cells were labeled with specific antibodies and analyzed by mass cytometry (CyTOF).
Tumors from each mouse were harvested after 10-12 days of treatment as described above. Single cell suspensions were generated from tumors using the MACS mouse tumor dissociation kit (Miltenyi Biotech Cat. 130-096-730) following manufacturer's instructions. One million cells per tumor were resuspended in PBS and labeled with Cell-ID Cisplatin (Fluidigm, Cat. 201064) to assess for live/dead cells. For antibody labeling, we used the recommended cell surface staining procedure (Fluidigm) followed by the FoxP3/Transcription Staining Buffer Set protocol (eBiosciences™). Cells were labeled with a panel of 28 metal-conjugated antibodies to determine different immune lineages in addition to memory, trafficking, activation, and exhaustion markers (see Tables 2-3 for list of antibodies). After washing and centrifugation, cells were fixed using MaxPar Fix and Perm buffer (Fluidigm, Cat. 201067) and labelled for single cell discrimination with Cell-ID Intercalator-Ir (Fluidigm, Cat. 201192A). Samples were resuspended with 10% EQ four-element calibration beads (Fluidigm, Cat. 201078), and filtered through a 40 μm mesh filter prior to acquisition on a HELIOS' mass cytometer (Fluidigm), at a rate of 300-500 events/s.
Collected mass cytometry data was analyzed as previously described. Briefly, samples were normalized utilizing a bead standard. First, each cytometry file was processed in FLOWJO (v10.3), then manually gated for stability of signal over time, followed by exclusion of normalization beads, ratio of DNA intercalators (191Ir+vs 193Ir+), with finally single cell events (Ir193 vs event length) (FIG. 24A). After that, viable (195Pt−)CD45+ events were exported and uploaded into the X-shift (VorteX) clustering environment to obtain the k-nearest-neighbor density estimation as described before. Dimensionality reduction of unclustered data was performed using the t-stochastic neighborhood embedding (t-SNE) and PhenoGraph algorithms implemented in the Cytofkit library, supplied by BIOCONDUCTOR v.3.4 and run in RSTUDIO v.1.1.463. A fixed number of 10,000 cells were sampled without replacement from each file and combined for analysis. Resulting t-SNE plots were subsequently filtered by marker expression to visualize differences between different treatment groups. Heatmaps were generated using Z-scores based on median marker expression (excel and Prism v7).

[2] = system: 4T1 triple negative breast cancer cells; test: 4T1 cell proliferation in vitro, Incucyte live-cell confluence; type: cell-based, mouse; conditions: 10, 100, 1000 nM, presence or absence of estradiol-17β, 5 days
Method: FIGS. 23A-23C show estrogen effects on ERα negative tumor growth in vitro and in vivo. […] Female 6-wk-old BALB/c mice, either ovariectomized (ovx) or sham-operated (intact), were inoculated s.c. with 2×10^5 4T1 TNBC cells. Tumor growth was then assessed every 3 days, with tumor volume calculated as V=(l×w×w)/2. ****P≤0.0001. […] 4T1 cells were grown in the presence (+E2) or absence (−E2) of estradiol-17β and increasing concentrations of SERD128 at 10 nM (128-10), 100 nM (128-100) or 1000 nM (128-1000). Cell proliferation was assessed using the Incucyte S3 Live-Cell Analysis system with pictures obtained every 4-6 hours. […] Tumors were measured every 3 days, and tumor volume was calculated as V=(W(2)×L)/2). **P<0,01, ****P<0.0001 as compared to control group. n=11-12.
MCF-7 and other selected BC cells were seeded in 96-well plates at […] in complete medium. […] Cell number and viability were determined by either cell counts or by colorimetric assays using the CELLTITER 96 AQUEOUS (Promega) assay or the cell proliferation ELISA BrdU assay (Roche) as per manufacturer's instructions. […] In selected experiments using the INCUCYTE™ Live Cell System (Essen Bioscience) as per the manufacturer's instructions, the proliferation of 4T1 cells maintained in a tissue culture incubator was monitored by using the NucLight Rapid Red Reagent for cell labeling in 6-well plates. […]

Row | Compound | total dendritic cells (CD11c+MHCII+) [1] | B regulatory cells (CD19+ CD25+ CD69+, gated on CD19+) [1] | M1 macrophages (MHCII high) [1] | M2 macrophages (MHCII low) [1] | markers of CD8+ TIL activation and/or proliferation [1] | stimulatory/myeloid dendritic cells (mDCs) [1] | markers of CD8+ TIL activation and/or proliferation ([1]; listed as S128) | 4T1 cell proliferation (phase object confluence) [2]
1 | C[C@]12CC[C@@H]3c4ccc(O)cc4C[C@@H](CCCCCCCCC[S+]([O-])CCCC(F)(F)C(F)(F)F)[C@H]3[C@@H]1CC[C@@H]2O (stereo partly drawn) [fulvestrant, reference compound] | increased the population of DCs in 4T1 tumors | – | – | – | – | – | – | –
2 | C[C@]12C[C@H](Oc3ccc(N)c(C(F)(F)F)c3)[C@@H]3c4ccc(O)cc4CC[C@H]3[C@@H]1CC[C@@H]2O [SERD128, (8S,9S,11S,13S,14S,17S)-11-(4-Amino-3-(trifluoromethyl)phenoxy)-13-methyl-7,8,9,11,12,13,14,15,16,17-decahydro-6H-cyclopenta[a]phenanthrene-3,17-diol] | increase expression of total dendritic cells; also recorded: increased population of mDCs in 4T1 tumors as well as the total population of DCs | decreases expression of B regulatory cells; also recorded: decrease expression of this subpopulation | increase in the M1 tumoricidal population of macrophages; also recorded: increases the ER+M1-tumoricidal subset of macrophages | notable decrease in the M2 phenotype; also recorded: reduces the M2-phenotype | promotes enhanced proliferation and activation of CD8^+ T-cells | increase expression of total dendritic cells (DC) and their stimulatory/myeloid subgroup; also recorded: increased population of mDCs | increased | No significant differences were observed in cell proliferation; also recorded: did not elicit any significant effect on cell growth in vitro
